This is an account of results in patent US20230257376A1, “ROCK INHIBITOR, AND PREPARATION METHOD THEREFOR AND USE THEREOF” (WUHAN LL SCIENCE AND TECHNOLOGY DEVELOPMENT CO., LTD., priority 2020, published 2023).

In series [1] the target is T1, ROCK1 kinase (Homo sapiens, UniProt Q13464).
T1 construct: purchased Invitrogen
Nature of the series: In vitro evaluation of ROCK1 kinase selectivity (HTRF KinEASE-STK time-resolved fluorometric assay). The format is biochemical. The note with it: ROCK1 kinase 0.4 ng/μL, ATP 3.53 μM. An outline of the steps: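 HTRF KinEASE-STK assay with ROCK1 at 0.4 ng/μL final, preincubated with compound (1% DMSO) 0.5 h at room temperature. Reaction ran 2 h at room temperature with 3.53 μM ATP and 1 μM biotinylated STK-substrate 2, then detection via STK antibody-cryptate/streptavidin-XL665 after ~1 h.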

Series [2] in a line: In vivo pharmacokinetic study in mice. The note with it: mouse, plasma; for bioavailability: 1 mg/kg Po (fasted) vs 1 mg/kg Iv; for AUC(0-t) / Cmax: 1 mg/kg. The source says:
[…] After administration, plasma of mice was collected at specific time points, and the concentration of the compound in the plasma was detected by LC-MS/MS (AB SCIEX Qtrap4500). The PK parameters of the compounds were statistically analyzed and calculated (WinNonlin V5.2, Pharsight) to show the pharmacokinetic properties of the compounds disclosed herein in mice.

Series [3] is described as follows: In vitro metabolic stability, human liver microsome incubation. The format is in vitro ADME. The note with it: liver microsomes, 1 mg/mL protein, 37° C., read-out: T1/2 in human liver microsome. How it is done: (§1) The in vitro metabolic stability of the compounds disclosed herein was determined through incubation of liver microsomes of various species. A proper amount of test compound was added into a liver microsome reaction system (1 mg/mL liver microsome protein, 25 U/mL glucose-6 phosphate dehydrogenase, 1 mM NADP, 6 mM D-glucose 6-phosphate and 5 mM MgCl2), and then the mixture was incubated in a water bath kettle at 37° C. to start reaction. At each time point, 100 μL of the reaction liquid was added into a centrifuge tube containing 400 μL of internal standard working solution (containing a 200 ng/mL solution of dexamethasone, diclofenac, tolbutamide and labetalol in acetonitrile) precooled at 0° C. so as to stop the reaction, and the mixture was then centrifuged at 10,000 g for 10 min at 4° C. The supernatant was collected for LC-MS assay so as to obtain the values of in vitro metabolic half-life of the test compounds in liver microsomes of various species.
In general terms: Liver microsomes are vesicles of endoplasmic reticulum, rich in cytochrome P450 enzymes.

A short description of series [4]: In vitro metabolic stability, rat liver microsome incubation. The format is in vitro ADME. As to conditions: liver microsomes, 1 mg/mL protein, 37° C., read-out: T1/2 in rat liver microsome. How it is done: as §1
Series [5] addresses T2, ROCK2 kinase (Homo sapiens, UniProt O75116).
T2 construct: purchased Invitrogen PV3759
Put plainly: In vitro evaluation of ROCK2 kinase activity (HTRF KinEASE-STK time-resolved fluorometric assay). The note with it: ROCK2 kinase 0.4 ng/μL, ATP 6.739 μM. The format is biochemical. The method in brief: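 Recombinant kinase (0.4 ng/μL final) preincubated 0.5 h at RT with compound (1% DMSO), then 2 h with 6.739 μM ATP and 1 μM biotinylated STK substrate 2 (final). HTRF readout via STK antibody-cryptate/streptavidin-XL665 after ~1 h; buffer 5 mM MgCl2, 1 mM DTT.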
Background: TR-FRET usually uses a lanthanide donor and a delayed reading to cut background.

Series [6] in a line: In vitro cytotoxicity assay in HepG2 cells using the CCK-8 method. The format is cell-based. The note with it: human. Here is the method:
In vitro cytotoxicity assay for the compounds disclosed herein was performed in HepG2 cells using the CCK-8 method. HepG2 cells (Beina Bio) in the logarithmic growth phase were collected, the concentration of cell suspension was adjusted, and then the cells were plated on a 96-well cell culture plate at 50,000 cells/well. The cells were then incubated overnight in a cell incubator (5%, 37° C.), and after 80-90% cell confluence was achieved, test compound at each concentration gradient or vehicle (DMSO) was added after medium change. The resulting mixture was incubated in the cell incubator (5%, 37° C.) for 48 h. After the treatment, the medium in the plate was discarded. The plate was washed twice with PBS, added with CCK-8 working solution (Beyotime) at 100 μL per well, and then incubated at 37° C. for 1.5 h in the dark. Absorbance at OD450 nm mil was measured for each well on a microplate reader, and CC50 value of each compound was analyzed and calculated.
Background: Tetrazolium dyes change colour on reduction, which living cells bring about.

Series [7] can be described thus: In vitro metabolic stability, guinea pig liver microsome incubation. The format is in vitro ADME. The note with it: liver microsomes, 1 mg/mL protein, 37° C., read-out: T1/2 in guinea pig liver microsome. Here is the method: as §1

Some results are limits rather than exact numbers.

T1 sequence (Q13464 whole entry): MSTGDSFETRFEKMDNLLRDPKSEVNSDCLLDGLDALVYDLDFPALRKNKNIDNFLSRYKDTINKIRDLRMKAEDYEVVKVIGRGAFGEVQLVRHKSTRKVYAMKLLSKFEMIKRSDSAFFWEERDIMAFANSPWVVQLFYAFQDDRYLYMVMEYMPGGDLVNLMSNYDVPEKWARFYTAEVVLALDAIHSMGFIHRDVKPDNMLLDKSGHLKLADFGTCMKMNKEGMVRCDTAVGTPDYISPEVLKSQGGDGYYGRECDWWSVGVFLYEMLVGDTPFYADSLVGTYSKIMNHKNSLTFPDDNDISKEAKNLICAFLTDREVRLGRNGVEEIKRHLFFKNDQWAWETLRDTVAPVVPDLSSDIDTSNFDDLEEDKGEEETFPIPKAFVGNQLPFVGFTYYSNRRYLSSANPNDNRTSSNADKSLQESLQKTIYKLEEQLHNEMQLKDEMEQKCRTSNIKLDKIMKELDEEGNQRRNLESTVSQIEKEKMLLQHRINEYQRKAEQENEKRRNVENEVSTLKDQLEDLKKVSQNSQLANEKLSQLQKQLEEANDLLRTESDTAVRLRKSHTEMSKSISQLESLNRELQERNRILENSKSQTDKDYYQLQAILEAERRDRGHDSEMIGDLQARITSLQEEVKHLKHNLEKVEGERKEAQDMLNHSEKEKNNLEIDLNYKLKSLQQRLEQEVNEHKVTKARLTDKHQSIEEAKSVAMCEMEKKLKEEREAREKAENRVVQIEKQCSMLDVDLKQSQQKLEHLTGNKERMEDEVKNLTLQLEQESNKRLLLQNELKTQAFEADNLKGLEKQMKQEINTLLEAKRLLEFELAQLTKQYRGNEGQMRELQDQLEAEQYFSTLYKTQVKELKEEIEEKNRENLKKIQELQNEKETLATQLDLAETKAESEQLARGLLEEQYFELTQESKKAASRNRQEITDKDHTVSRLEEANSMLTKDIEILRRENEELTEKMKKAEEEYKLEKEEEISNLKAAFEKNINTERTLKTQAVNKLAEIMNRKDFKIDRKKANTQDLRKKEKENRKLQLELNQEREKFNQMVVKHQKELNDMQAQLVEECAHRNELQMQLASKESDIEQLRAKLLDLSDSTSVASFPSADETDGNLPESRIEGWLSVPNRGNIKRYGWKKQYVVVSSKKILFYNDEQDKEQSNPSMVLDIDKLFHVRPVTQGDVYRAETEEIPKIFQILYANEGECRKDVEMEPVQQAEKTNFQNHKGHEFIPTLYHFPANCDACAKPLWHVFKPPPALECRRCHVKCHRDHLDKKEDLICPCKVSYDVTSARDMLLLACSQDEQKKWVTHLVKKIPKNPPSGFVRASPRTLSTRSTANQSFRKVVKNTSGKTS
T2 sequence (O75116 whole entry): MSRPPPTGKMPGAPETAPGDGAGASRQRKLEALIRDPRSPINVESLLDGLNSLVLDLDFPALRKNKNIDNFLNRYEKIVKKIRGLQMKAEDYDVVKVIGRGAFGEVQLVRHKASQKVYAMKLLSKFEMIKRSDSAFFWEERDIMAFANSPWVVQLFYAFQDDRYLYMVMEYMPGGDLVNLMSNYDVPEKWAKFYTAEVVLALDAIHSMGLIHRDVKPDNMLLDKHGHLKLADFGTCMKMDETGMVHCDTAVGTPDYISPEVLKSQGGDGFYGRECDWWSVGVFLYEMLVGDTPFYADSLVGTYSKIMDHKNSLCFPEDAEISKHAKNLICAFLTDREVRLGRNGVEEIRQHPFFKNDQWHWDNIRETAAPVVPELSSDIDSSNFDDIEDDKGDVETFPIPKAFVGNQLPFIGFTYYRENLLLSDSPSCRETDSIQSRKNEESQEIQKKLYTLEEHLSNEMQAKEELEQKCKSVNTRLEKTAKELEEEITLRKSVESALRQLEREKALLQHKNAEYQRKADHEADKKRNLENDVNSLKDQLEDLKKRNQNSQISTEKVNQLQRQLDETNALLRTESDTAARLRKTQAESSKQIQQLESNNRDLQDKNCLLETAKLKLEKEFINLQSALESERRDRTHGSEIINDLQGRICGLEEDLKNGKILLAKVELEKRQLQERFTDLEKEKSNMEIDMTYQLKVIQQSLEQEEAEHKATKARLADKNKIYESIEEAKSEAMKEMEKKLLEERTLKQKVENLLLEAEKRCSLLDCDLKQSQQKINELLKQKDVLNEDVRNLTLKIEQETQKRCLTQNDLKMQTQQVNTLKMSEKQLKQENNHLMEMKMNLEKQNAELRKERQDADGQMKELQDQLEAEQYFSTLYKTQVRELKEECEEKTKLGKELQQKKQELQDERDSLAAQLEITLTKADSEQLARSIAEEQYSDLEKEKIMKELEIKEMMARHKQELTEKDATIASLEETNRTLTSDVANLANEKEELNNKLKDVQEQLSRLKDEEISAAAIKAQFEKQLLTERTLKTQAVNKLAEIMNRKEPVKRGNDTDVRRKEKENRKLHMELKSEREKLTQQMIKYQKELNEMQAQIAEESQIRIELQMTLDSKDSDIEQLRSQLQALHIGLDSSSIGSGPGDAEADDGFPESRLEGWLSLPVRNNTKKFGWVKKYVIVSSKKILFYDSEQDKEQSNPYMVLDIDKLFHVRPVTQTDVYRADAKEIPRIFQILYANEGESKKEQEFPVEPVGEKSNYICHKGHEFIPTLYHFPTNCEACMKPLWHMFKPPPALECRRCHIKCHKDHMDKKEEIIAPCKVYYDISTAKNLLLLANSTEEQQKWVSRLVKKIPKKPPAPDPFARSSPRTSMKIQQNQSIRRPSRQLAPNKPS

Regarding `Cn1c(C(=O)N2CC(C(F)F)C2)cc2c1CN(c1nccc(Nc3ccc(-c4cn[nH]c4)cc3)n1)CC2` [Compound L060, (6-(4-((4-(1H-pyrazol-4-yl)phenyl)amino)pyrimidin-2-yl)-1-methyl-4,5,6,7-tetrahydro-1H-pyrrolo[2,3-c]pyridin-2-yl)(3-(difluoromethyl)azetidin-1-yl)methanone], the IC50 (in general, the concentration that gives 50% inhibition) is over 4.5 µM in series [1] and at most 50 nM in series [5]. The bioavailability (commonly dose-corrected exposure relative to a reference, in per cent) in series [2] was determined as 54%. Moreover, the AUC(0-t) (in general, the area under the concentration-time curve up to a stated or last time point) in series [2] (Iv) was 266 ng·h/mL; in series [2] (Po (fasted)), 144 ng·h/mL. Further, the Cmax (commonly the highest concentration seen after dosing) in series [2] (Iv) was 463 ng/mL; in series [2] (Po (fasted)), 64.5 ng/mL. Moreover, the half-life in series [3] amounted to 95.3 min; in series [4] it was 69.8 min; in series [7], 58.2 min. For the same molecule, the CC50 – broadly, the concentration giving 50% cytotoxicity – at 48 h in series [6] was over 100 µM.

In the case of `Cn1c(C(=O)N2CC(F)(F)C2)cc2c1CN(c1nccc(Nc3ccc(-c4cn[nH]c4)cc3)n1)CC2` [Compound L005, (6-(4-((4-(1H-pyrazol-4-yl)phenyl)amino)pyrimidin-2-yl)-1-methyl-4,5,6,7-tetrahydro-1H-pyrrolo[2,3-c]pyridin-2-yl)(3,3-difluoroazetidin-1-yl)methanone], the IC50 is over 4.5 µM in series [1] and at most 50 nM in series [5]. Moreover, the bioavailability in series [2] was 59.7%. The exposure AUC(0-t) in series [2] (Iv) was 120 ng·h/mL; in series [2] (Po (fasted)) it was 71.8 ng·h/mL. The Cmax turned out to be 155 ng/mL in series [2] (Iv) and 37.2 ng/mL in series [2] (Po (fasted)). Further, the half-life was determined as 175 min in series [3], 103 min in series [4] and 64.8 min in series [7]. The same molecule had a CC50 at 48 h in series [6] of over 100 µM.

Regarding `Cn1c(C(=O)N2CC(F)(F)C2)cc2c1CN(c1ncnc(Nc3ccc(-c4cn[nH]c4)cc3)n1)CC2` [Compound L036, (6-(4-((4-(1H-pyrazol-4-yl)phenyl)amino)-1,3,5-triazin-2-yl)-1-methyl-4,5,6,7-tetrahydro-1H-pyrrolo(2,3-c)pyridin-2-yl)(3,3-difluoroazetidin-1-yl)methanone], the IC50 in series [1] is over 4.5 µM; in series [5], 50 to 500 nM. Besides, in series [2], the bioavailability stood at 59.9%. Also, the exposure AUC(0-t) in series [2] (Iv) was 349 ng·h/mL; in series [2] (Po (fasted)), 209 ng·h/mL. In addition, the figures for the Cmax in series [2] (Iv) and in series [2] (Po (fasted)) were 473 ng/mL and 98.7 ng/mL, respectively. Besides, the half-life in series [3] amounted to 178 min; in series [4] it was 94.4 min; in series [7] it was 75.2 min. The molecule further yielded a CC50 at 48 h in series [6] of over 100 µM.

Turning to `Cn1c(C(=O)N2CC(F)(F)C2)cc2c1CN(c1nc(F)cc(Nc3ccc(-c4cn[nH]c4)cc3)n1)CC2` [Compound L030, (6-(4-((4-(1H-pyrazol-4-yl)phenyl)amino)-6-fluoropyrimidin-2-yl)-1-methyl-4,5,6,7-tetrahydro-1H-pyrrolo[2,3-c]pyridin-2-yl)(3,3-difluoroazetidin-1-yl)methanone], the IC50 in series [1] is over 4.5 µM; in series [5], 50 to 500 nM. The molecule also registered a bioavailability in series [2] of 30.6%. Besides, the AUC(0-t) in series [2] (Iv) amounted to 726 ng·h/mL; in series [2] (Po (fasted)) it was 225 ng·h/mL. Further, the highest concentration (Cmax) in series [2] (Iv) was 1120 ng/mL; in series [2] (Po (fasted)) it was 60 ng/mL. For the same molecule, the values for the half-life in series [3], in series [4] and in series [7] were 207 min, 158 min and 58.2 min, respectively. This molecule also showed a CC50 at 48 h in series [6] of over 100 µM.

Consider `Cn1c(C(=O)NCC(F)(F)F)cc2c1CN(c1nccc(Nc3ccc(-c4cn[nH]c4)cc3)n1)CC2` [Compound L017, 6-(4-((4-(1H-pyrazol-4-yl)phenyl)amino)pyrimidin-2-yl)-1-methyl-N-(2,2,2-trifluoroethyl)-4,5,6,7-tetrahydro-1H-pyrrolo[2,3-c]pyridine-2-carboxamide], for which the IC50 in series [1] was over 4.5 µM; in series [5], at most 50 nM. Also, in series [2], the bioavailability was 12.2%. In addition, the AUC(0-t) in series [2] (Iv) was 872 ng·h/mL; in series [2] (Po (fasted)), 106 ng·h/mL. In addition, the results for the Cmax in series [2] (Iv) and in series [2] (Po (fasted)) were 2570 ng/mL and 41.3 ng/mL, respectively. Also, the half-life in series [3] was found to be 186 min; in series [4] it was 72.5 min; in series [7] it was 45 min. Besides, the midpoint of cytotoxicity in series [6], the CC50 at 48 h, lay at 33.4 µM.

With `Cn1c(C(=O)N2CC(F)(F)C2)cc2c1CN(c1ncc(F)c(Nc3ccc(-c4cn[nH]c4)cc3)n1)CC2` [Compound L027, (6-(4-((4-(1H-pyrazol-4-yl)phenyl)amino)-5-fluoropyrimidin-2-yl)-1-methyl-4,5,6,7-tetrahydro-1H-pyrrolo[2,3-c]pyridin-2-yl)(3,3-difluoroazetidin-1-yl)methanone], the IC50 in series [1] was over 4.5 µM; in series [5] it was at most 50 nM. Also, in series [2], the bioavailability worked out at 82.7%. Moreover, the figures for the AUC(0-t) in series [2] (Iv) and in series [2] (Po (fasted)) were 412 ng·h/mL and 341 ng·h/mL, respectively. Further, the Cmax came to 517 ng/mL in series [2] (Iv) and 116 ng/mL in series [2] (Po (fasted)). For the same molecule, the half-life in series [3] stood at 57.4 min; in series [4] it was 127 min; in series [7], 617 min. For the same molecule, in series [6], the CC50 at 48 h is over 100 µM.
